Measurements: patent publication US20140323533A1, “COMBINATION OF ANTI-CTLA4 ANTIBODY WITH TUBULIN MODULATING AGENTS FOR THE TREATMENT OF PROLIFERATIVE DISEASES” (BRISTOL-MYERS SQUIBB COMPANY, priority 2013, published 2014)
Several values for one entry are separate records, joined by “and”; a condition that tells them apart may be missing. Equal values may be shown once.

Tests used:
[1] = system: SA1N fibrosarcoma, M109 lung carcinoma, EMT-6 mammary carcinoma, CT-26 colon carcinoma and B16 melanoma; assay: Efficacy studies across murine tumor lines (summary); assay type: in vivo, mouse; conditions: animals with complete regressions rechallenged with lethal dose of tumor cells
Procedure: Efficacy studies were conducted in 3 different tumor lines implanted in immunocompetent mice: SAlN fibrosarcoma, MI09 lung carcinoma and EMT-6 mammary carcinoma. […] For the combination group, anti-CTLA-4 mAb was administered one day after each ixabepilone treatment. In selected studies, animals with complete tumor regressions were rechallenged with a lethal dose of tumor cells to determine the level of immune protection. In other studies, the combined efficacy of CTLA-4 mAb+ixabepilone was compared directly with CTLA-4 InAb+paclitaxel.
The effect of an anti-mouse CTLA-4 blocking antibody, the murine homolog of ipilimumab, was evaluated in multiple murine tumor models in combination with the microtubule-stabilizing agents paclitaxel (TAXOL®), and ixabepilone (IXEMPRA®). Efficacy studies were conducted in 5 different tumor lines: SA1N fibrosarcoma, M109 lung carcinoma, EMT-6 mammary carcinoma, CT-26 colon carcinoma and B16 melanoma. Ixabepilone, paclitaxel and CTLA-4 mAb were administered at their optimal dose and schedule: ixabepilone, 8 mg/kg; paclitaxel, 24 mg/kg, CTLA-4 mAb, 20 mg/kg every 4 days for 3 doses. For the combination group, anti-CTLA-4 mAb was administered one day after each ixabepilone or paclitaxel treatment. In selected studies, animals with complete tumor regressions were rechallenged with a lethal dose of tumor cells to determine the level of immune protection.

EMT-6 mammary carcinoma = assay: Antitumor activity in the EMT-6 mammary tumor model; assay type: in vivo, mouse; conditions: for % Tumor-free Mice / T-C: Study 27; for T-C: treatment from day 3/4, every 4 days x3 IP, ixabepilone 8, paclitaxel 24, CTLA-4 mAb 20 mg/kg
Procedure: (§1) Tumor cell lines were maintained in vitro. Treatments were initiated when the subcutaneous tumors reached a median size between 100-200 mm^3 (established model) or prior to detection (initiation model). Tumors were measured twice weekly and tumor size (mm^3) was calculated as (length×width^2)/2. Body weights were obtained weekly. The tumor models used in these studies are outlined in Table 1.
(§2) The dose levels, routes and dosing schedules are indicated for each particular study described below. Antibodies and chemotherapeutic agents were administered intraperitoneally (i.p.). Each treatment regimen consisted of a cohort of eight to ten mice. Anti-tumor activity, defined as percentage tumor growth inhibition, was calculated as follows: […]
(§3) In addition, another parameter used to define efficacy was to determine time to tumor progression to target size (T−C), where the time (days) for the median tumor size of control (C) mice to reach target size was subtracted to the time for median tumor size of treated (T) mice to reach target size.

M109 lung carcinoma [2] = assay: Antitumor activity in the M109 lung carcinoma tumor model; assay type: in vivo, mouse; conditions: for % Tumor-Free Mice after Initial Tumor Implantation: Study 40, footnote: percentage of animals that develop tumors following implantation on Day 0
Procedure: as §1, §2
The antitumor effects of CTLA-4 mAb and microtubule-stabilizing agents were also studied in the M109 lung carcinoma model, a tumor line which is not sensitive to the effect of CTLA-4 blockade. In these studies treatments with chemotherapeutic agents were initiated when tumors were palpable, on day 3 after tumor implantation. This regimen was selected to produce a measurable antitumor effect, which was not observed when treatments were initiated at a later time. As in the studies conducted in the SA1N and EMT-6 tumor lines, CTLA-4 mAb was dosed one day after treatment with chemotherapy.

CT26 colon carcinoma = assay: Antitumor activity in the CT26 colon tumor model; assay type: in vivo, mouse; conditions: for % Complete Regressions/Total # mice: IP every 4 days x3, ixabepilone 8, paclitaxel 24, CTLA-4 mAb 20 mg/kg; for antitumor effect in words: text and FIG. 2
Procedure: as §1, §2
Next, the antitumor effects of CTLA-4 mAb and nmicrotubule-stabilizing agents were studied in a model not sensitive to ixabepilone or paclitaxel, the CT26 colon carcinoma model.

M109 lung carcinoma [3] = assay: M109 tumor rechallenge of tumor-free mice; assay type: in vivo, mouse
From the text: To determine whether the combination of CTLA-4+ixabepilone produced a memory immune response able to reject a secondary tumor challenge, animals free of tumors by day 97 were re-challenge with a lethal M109 cell inoculum.

SA1N fibrosarcoma = assay: Antitumor activity in the SA1N fibrosarcoma tumor model; assay type: in vivo, mouse; conditions: for % TGI: IP every 4 days x3; for CR/Total # mice: complete regressions; for T-C: target size 500 mm^3
Procedure: as §1
The dose levels, routes and dosing schedules are indicated for each particular study described below. Antibodies and chemotherapeutic agents were administered intraperitoneally (i.p.). Each treatment regimen consisted of a cohort of eight to ten mice. Anti-tumor activity, defined as percentage tumor growth inhibition, was calculated as follows:
% Tumor Growth Inhibition=100−[(Tt/To)/(Ct/Co)]/100−(Ct/Co)
as §3
SA1N fibrosarcoma is an inherently immunogenic tumor line which is sensitive to the effects of CTLA-4 blockade. Two studies were conducted to determine the effect of CTLA-4 blockade in combination with ixabepilone or paclitaxel in this tumor model (see Table 1). Animals were implanted with SA1N cells subcutaneously and treatments were initiated when tumors reached 100-150 mm^3. Experimental groups consisted of cohorts of 8 mice. Ixabepilone, paclitaxel and CTLA-4 mab were administered intraperitoneally (IP) every 4 days for 3 doses. In the combination groups, CTLA-4 mab was administered one day after each chemotherapy treatment.

[4] = system: A2780, HCT116, LS174T, HCT116/VM46, Pat-7, A2780Tax, Pat-21 tumor models; assay: Preclinical pharmacology studies of Compound 1 in tumor models; assay type: in vivo
[5] = Study 17, calculated Day 33, ixabepilone 8, paclitaxel 24, CTLA-4 mAb 20 mg/kg
[6] = Study 17, study terminated day 116

C/C(=C\c1csc(C)n1)[C@@H]1C[C@@H]2O[C@]2(C)CCC[C@H](C)[C@H](O)[C@@H](C)C(=O)C(C)(C)[C@@H](O)CC(=O)N1 [Ixabepilone, (1S,3S,7S,10R,11S,12S,16R)-7,11-dihydroxy-8,8,10,12,16-pentamethyl-3-[(1E)-1-methyl-2-(2-methyl-4-thiazolyl)ethenyl]-17-oxa-4-azabicyclo[14.1.0]heptadecane-5,9-dione]
protection against tumor rechallenge in words [1]: only partial protection
% Tumor-free Mice (EMT-6 mammary carcinoma): 20%
T-C (EMT-6 mammary carcinoma): 19 days
treated animals in which tumor growth was inhibited (M109 lung carcinoma [2]): 50%
% Tumor-Free Mice after Initial Tumor Implantation (M109 lung carcinoma [2]): 50%
% Complete Regressions/Total # mice (CT26 colon carcinoma): 0/10
antitumor effect in words (CT26 colon carcinoma): neither paclitaxel or ixabepilone produced any measurable antitumor activity
% mice developing tumors after rechallenge (M109 lung carcinoma [3]; Study 40, footnote: percentage of mice that develop tumors after tumor rechallenge on Day 95): 75%
mice that developed tumors after rechallenge, percent (M109 lung carcinoma [3]; tumor-free mice re-challenged with lethal M109 inoculum): 80%
mice that developed tumors after rechallenge (M109 lung carcinoma [3]; tumor-free mice re-challenged with lethal M109 inoculum, count): 4 out of 5
CR/Total # mice, percentage in parentheses (% CR) (SA1N fibrosarcoma; Study 9): (37.5) %
% TGI (SA1N fibrosarcoma; Study 9, calculated Day 36, ixabepilone 8 mg/kg, CTLA-4 mAb 20 mg/kg): 92%
CR/Total # mice (SA1N fibrosarcoma; Study 9): 3 out of 8 and 3/8
T-C (SA1N fibrosarcoma; Study 9, study terminated day 39): 11 days
CR/Total # mice, percentage in parentheses (% CR) (SA1N fibrosarcoma; Study 17): (0) %
% TGI (SA1N fibrosarcoma; [5]): 83%
CR/Total # mice (SA1N fibrosarcoma; Study 17): 0/8
T-C (SA1N fibrosarcoma; [6]): 7 days

5beta,20-Epoxy-1,2alpha,4,7beta, 10beta, 13alpha-hexahydroxytax-11-en-9-one 4,10-diacetate 2-benzoate 13-ester with (2R,3S)—N-benzoyl-3-phenylisoserine [Paclitaxel]
antitumor effect in words (EMT-6 mammary carcinoma): ineffective
% Tumor-free Mice (EMT-6 mammary carcinoma): 0%
T-C (EMT-6 mammary carcinoma): 0 days
antitumor effect in words (M109 lung carcinoma [2]; FIG. 1): did not produce antitumor effects
% Tumor-Free Mice after Initial Tumor Implantation (M109 lung carcinoma [2]): 100%
% Complete Regressions/Total # mice (CT26 colon carcinoma): 0/10
antitumor effect in words (CT26 colon carcinoma): neither paclitaxel or ixabepilone produced any measurable antitumor activity
% TGI (SA1N fibrosarcoma; Study 11, calculated Day 34, paclitaxel 24, CTLA-4 mAb 20 mg/kg): 88%
CR/Total # mice (SA1N fibrosarcoma; Study 11): 3/8
T-C (SA1N fibrosarcoma; Study 11, study terminated day 52): 13 days
% TGI (SA1N fibrosarcoma; [5]): 0%
CR/Total # mice (SA1N fibrosarcoma; Study 17): 0/8
T-C (SA1N fibrosarcoma; [6]): 0 days
antitumor effect in words (SA1N fibrosarcoma; both SA1N studies): variable effect

C/C(=C\c1csc(C)n1)[C@@H]1C[C@@H]2O[C@]2(C)CCC[C@H](C)[C@H](O)[C@@H](C)C(=O)C(C)(C)[C@@H](O)CC(=O)N1 (relative stereo) [Compound 1, [1S-[1R*,3R*(E),7R*,10S*,11R*,12R*,16S*]]-7,11-dihydroxy-8,8,10,12,16-pentamethyl-3-[1-methyl-2-(2-methyl-4-thiazolyl)ethenyl]-4-aza-17-oxabicyclo[14.1.0]heptadecane-5,9-dione]
oral efficacy in words ([4]; oral vs parenteral administration): orally efficacious
antitumor activity in words ([4]; paclitaxel-sensitive and paclitaxel-resistant human tumor models): very impressive and broad spectrum of antitumor activity
